# Results as given in patent publication US20240059694A1, “COMPOUND CONTAINING 1,3-BENZODIOXOL STRUCTURE AND PREPARATION METHOD AND USE THEREOF” (priority 2021, published 2024).
# What was measured:
# Daudi cells = test: Proliferation inhibition of Daudi cells (Cell Titer-Glo, 72 h); assay type: cell-based; settings: 72 h drug action, class key in μM
# Description: (§1) Experimental procedure: A certain number of cells in the logarithmic growth phase were inoculated in a 96-well plate and cultured at 37° C. before adding drugs. After 72 h of drug action, after the 96-well cell plate was equilibrated to room temperature, 40 μL of Cell Titer-Glo® reagent was added to each well; each plate was then shaken for 2 min and allowed to stand for 10 min, the chemiluminescent signal was detected with an MD SpectraMax Paradigm microplate reader. Data analysis: The formula is as follows: […]
# (§2) Max signal: DMSO signal; Min signal: medium signal, IC50 was calculated using GraphPad Prism 5.
# BTK = BTK (Homo sapiens (Human), UniProt Q06187); test: BTK kinase inhibitory activity experiment (Caliper EZ reader conversion rate); assay type: biochemical; settings: for IC50: in vitro kinase assay, 20 min incubation, class key in μM; for inhibitory activity on BTK (in words): summary of Table 1
# Description: (§3) Experimental method: The 384-well plate was divided into compound wells (starting at 10 μM, diluted three times to produce 10 concentrations), positive control wells and negative control wells; kinase solution was added to compound wells and positive control wells, and 1×kinase buffer was added to negative control wells; the solution is next centrifuged for 30 seconds and incubated at room temperature for 10 min. Add 15 μL of the mixed solution of ATP and substrate, shake and mix well after centrifugation and incubate at room temperature (30 min for JAK3, 20 min for BTK). Add stop detection solution to stop the reaction, and read the conversion rate with Caliper EZ reader, Data analysis: The formula is as follows: […]
# (§4) where Conversion %_sample is the conversion rate reading of the sample Conversion %_min is the average value of the negative control wells representing the conversion rate reading of the wells without enzyme addition; and Conversion %_max is the average value of the positive control wells representing the conversion rate reading of the wells without adding the compound. Fit the dose-response curve: Taking the log value of the concentration as the X-axis, and the percentage inhibition rate as the Y-axis, the dose-response curve was fitted using the log (inhibitor) vs. response-Variable slope of the software GraphPad Prism 5, so as to obtain the IC50 value of each compound on the enzyme activity.
# JAK3 = JAK3 (Homo sapiens (Human), UniProt P52333); test: JAK3 kinase inhibitory activity experiment (Caliper EZ reader conversion rate); assay type: biochemical; settings: for IC50: in vitro kinase assay, 30 min incubation, class key in μM; for inhibitory activity on JAK3 (in words): summary of Table 1
# Description: as §3, §4
# BaF3-TEL-JAK3 cells = test: Proliferation inhibition of BaF3-TEL-JAK3 cells (Cell Titer-Glo, 72 h); assay type: cell-based; settings: 72 h drug action, class key in μM
# Description: as §1, §2
# Sequence of JAK3 (P52333 whole entry): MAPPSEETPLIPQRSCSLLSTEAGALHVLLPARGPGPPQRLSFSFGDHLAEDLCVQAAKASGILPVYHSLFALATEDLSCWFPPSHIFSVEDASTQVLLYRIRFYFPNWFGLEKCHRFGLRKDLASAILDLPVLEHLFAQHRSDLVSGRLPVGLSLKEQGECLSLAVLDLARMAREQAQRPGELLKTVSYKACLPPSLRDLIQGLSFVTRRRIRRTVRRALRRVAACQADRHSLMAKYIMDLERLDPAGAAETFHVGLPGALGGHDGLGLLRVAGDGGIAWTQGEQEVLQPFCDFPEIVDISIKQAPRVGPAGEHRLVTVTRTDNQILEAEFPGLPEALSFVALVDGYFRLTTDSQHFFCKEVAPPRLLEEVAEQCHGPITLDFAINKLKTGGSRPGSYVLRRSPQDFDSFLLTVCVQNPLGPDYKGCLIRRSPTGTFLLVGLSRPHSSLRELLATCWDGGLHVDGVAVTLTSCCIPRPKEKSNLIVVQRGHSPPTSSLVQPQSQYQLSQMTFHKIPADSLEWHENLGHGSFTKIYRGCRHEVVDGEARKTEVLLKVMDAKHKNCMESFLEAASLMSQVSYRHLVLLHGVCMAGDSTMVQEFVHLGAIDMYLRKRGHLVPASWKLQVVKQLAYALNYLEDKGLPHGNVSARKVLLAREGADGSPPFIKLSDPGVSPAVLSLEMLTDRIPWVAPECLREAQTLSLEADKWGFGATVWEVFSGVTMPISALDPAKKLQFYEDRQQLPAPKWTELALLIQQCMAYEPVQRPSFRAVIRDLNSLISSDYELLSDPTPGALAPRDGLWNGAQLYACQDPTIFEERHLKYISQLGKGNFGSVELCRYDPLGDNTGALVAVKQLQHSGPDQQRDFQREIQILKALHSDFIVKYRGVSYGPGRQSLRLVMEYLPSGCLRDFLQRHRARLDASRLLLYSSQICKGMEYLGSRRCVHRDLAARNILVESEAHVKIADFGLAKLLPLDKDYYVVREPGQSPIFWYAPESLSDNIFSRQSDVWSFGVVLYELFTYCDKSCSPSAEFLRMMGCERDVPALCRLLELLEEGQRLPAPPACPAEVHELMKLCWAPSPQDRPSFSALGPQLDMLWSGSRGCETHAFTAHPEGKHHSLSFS
# Sequence of BTK (Q06187 whole entry): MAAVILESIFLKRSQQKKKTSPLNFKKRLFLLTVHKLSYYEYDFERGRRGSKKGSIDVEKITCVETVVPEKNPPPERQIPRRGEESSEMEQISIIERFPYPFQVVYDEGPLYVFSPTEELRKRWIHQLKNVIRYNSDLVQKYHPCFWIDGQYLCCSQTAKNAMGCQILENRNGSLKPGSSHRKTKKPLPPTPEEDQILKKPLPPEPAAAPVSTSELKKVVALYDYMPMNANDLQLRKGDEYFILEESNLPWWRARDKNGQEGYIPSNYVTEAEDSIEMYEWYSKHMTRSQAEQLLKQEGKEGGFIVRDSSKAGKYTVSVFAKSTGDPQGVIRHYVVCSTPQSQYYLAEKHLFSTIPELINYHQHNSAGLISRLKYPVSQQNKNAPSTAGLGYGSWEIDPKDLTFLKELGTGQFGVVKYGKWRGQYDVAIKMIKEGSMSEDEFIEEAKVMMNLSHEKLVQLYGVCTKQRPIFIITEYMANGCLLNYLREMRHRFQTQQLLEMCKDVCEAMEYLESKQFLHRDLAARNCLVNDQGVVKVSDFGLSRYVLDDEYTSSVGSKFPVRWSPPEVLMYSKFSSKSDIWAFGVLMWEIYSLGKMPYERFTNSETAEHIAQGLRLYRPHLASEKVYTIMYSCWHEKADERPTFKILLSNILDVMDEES
SMILES,IC50 (Daudi cells),IC50 (BTK),IC50 (JAK3),IC50 (BaF3-TEL-JAK3 cells),inhibitory activity on BTK (in words) (BTK),inhibitory activity on JAK3 (in words) (JAK3)
"C=CC(=O)N1CCC[C@@H](n2nc(-c3ccc(NC(=O)c4cccc5c4CCCC5)c4c3OCO4)c3c(N)ncnc32)C1 [I-20, (R)-N-(7-(1-(1-acryloylpiperidin-3-yl)-4-amino-1H-pyrazolo[3,4-d]pyrimidin-3-)benzo[d][1,3]dioxoheterocyclopenten-4-)-5,6,7,8-tetrahydronaphthalene-1-carboxamide]",0.5 to 1 µM,0.001 to 0.05 µM,0.001 to 0.05 µM,0.5 to 1 µM,–,–
"C=CC(=O)N1CCC[C@@H](n2nc(-c3ccc(NC(=O)c4ccc(N(C)C)cc4)c4c3OCO4)c3c(N)ncnc32)C1 [I-13, (R)-N-(7-(1-(1-acryloylpiperidin-3)-4-amino-1H-pyrazolo[3,4-d]pyrimidin-3-)benzo[d][1,3]dioxoheterocyclopenten-4)-4-(dimethylamino)benzamide]",0.5 to 1 µM,0.001 to 0.05 µM,0.001 to 0.05 µM,0.01 to 0.5 µM,–,–
"C=CC(=O)N1CCC[C@@H](n2nc(-c3ccc(NC(=O)c4ccc5ccccc5c4)c4c3OCO4)c3c(N)ncnc32)C1 [I-18, (R)-N-(7-(1-(1-acryloylpiperidin-3)-4-amino-1H-pyrazolo[3,4-d]pyrimidin-3-)benzo[d][1,3]dioxoheterocyclopenten-4)-2-naphthalenecarboxamide]",0.5 to 1 µM,0.001 to 0.05 µM,0.001 to 0.05 µM,0.5 to 1 µM,–,–
"C=CC(=O)N1CCC[C@@H](n2nc(-c3ccc(NC(=O)c4cccc5ccccc45)c4c3OCO4)c3c(N)ncnc32)C1 [I-17, (R)-N-(7-(1-(1-acryloylpiperidin-3-yl)-4-amino-1H-pyrazolo[3,4-d]pyrimidin-3-)benzo[d][1,3]dioxoheterocyclopenten-4-)-1-naphthalenecarboxamide]",0.5 to 1 µM,0.001 to 0.05 µM,0.001 to 0.05 µM,0.5 to 1 µM,–,–
"C=CC(=O)N1CCC[C@@H](n2nc(-c3ccc(NC(=O)c4ccc(C(C)(C)C)cc4)c4c3OCO4)c3c(N)ncnc32)C1 [I-11, (R)-N-(7-(1-(1-acryloylpiperidin-3)-4-amino-1H-pyrazolo[3,4-d]pyrimidin-3-)benzo[d][1,3]dioxoheterocyclopenten-4)-4-tert-butylbenzamide]",0.01 to 0.5 µM,0.001 to 0.05 µM,0.001 to 0.05 µM,0.01 to 0.5 µM,excellent inhibitory activity,excellent inhibitory activity
"C=CC(=O)N1CCC[C@@H](n2nc(-c3ccc(NC(=O)c4ccc(Cl)cc4)c4c3OCO4)c3c(N)ncnc32)C1 [I-7, (R)-N-(7-(1-(1-acryloylpiperidin-3)-4-amino-1H-pyrazolo[3,4d]pyrimidin-3-)benzo[d][1,3]dioxoheterocyclopenten-4)-4-chlorobenzamide]",0.5 to 1 µM,0.001 to 0.05 µM,0.001 to 0.05 µM,0.5 to 1 µM,excellent inhibitory activity,excellent inhibitory activity
"C=CC(=O)N1CCC[C@@H](n2nc(-c3ccc(NC(=O)c4ccccn4)c4c3OCO4)c3c(N)ncnc32)C1 [I-4, (R)-N-(7-(1-(1-acryloylpiperidin-3)-4-amino-1H-pyrazolo[3,4-d]pyrimidin-3-yl)benzo[d][1,3]dioxoheterocyclopenten-4)pyridine-2-formamide]",0.5 to 1 µM,0.001 to 0.05 µM,0.05 to 0.5 µM,0.5 to 1 µM,–,–
"C=CC(=O)N1CCC[C@@H](n2nc(-c3ccc(NC(=O)c4ccccc4)c4c3OCO4)c3c(N)ncnc32)C1 [I-1, (R)-N-(7-(1-(1-acryloylpiperidin-3-yl)-4-amino-1H-pyrazolo[3,4-d]pyrimidin-3-)benzo[d][1,3]dioxoheterocyclopenten-4-)benzamide]",0.5 to 1 µM,0.001 to 0.05 µM,0.05 to 0.5 µM,0.5 to 1 µM,–,–
"C=CC(=O)N1CCC[C@@H](n2cc(-c3ccc(NC(=O)c4cccc5ccccc45)c4c3OCO4)c3c(N)ncnc32)C1 [I-21, (R)-N-(7-(7-(1-acryloylpiperidin-3-yl)-4-amino-7H-pyrrolo[2,3-d]pyrimidin-5-yl)benzo[d][1,3]dioxoheterocyclopenten-4-)-1-naphthalenecarboxamide]",0.5 to 1 µM,0.001 to 0.05 µM,0.001 to 0.05 µM,0.5 to 1 µM,–,–
"C=CC(=O)N1CCC[C@@H](n2nc(-c3ccc(NC(=O)c4cccc(Cl)c4)c4c3OCO4)c3c(N)ncnc32)C1 [I-6, (R)-N-(7-(1-(1-acryloylpiperidin-3)-4-amino-1H-pyrazolo[3,4-d]pyrimidin-3-)benzo[d][1,3]dioxoheterocyclopenten-4)-3-chlorobenzamide]",0.5 to 1 µM,0.001 to 0.05 µM,0.001 to 0.05 µM,0.5 to 1 µM,excellent inhibitory activity,excellent inhibitory activity
